Tested on: monocyte-free human T cells
Assay: Inhibition of 5-HT-dependent T Cell Proliferation
Assay type: cell-based
Conditions: PWM (1:200) and 5-HT (100 μm), 7 days, 3H-thymidine incorporation, 33 μM-0.1 μM
From the text: The in vitro activity of the compounds according to the invention results from their capability to inhibit T cell proliferation, which is previously stimulated by serotonin.
Inhibition of 5-HT-dependent T Cell Proliferation
Peripheral mononuclear blood cells (PBMC) are obtained from the buffy coat of the blood of healthy subjects. After isolation by means of isolymph gradients (Pharmacia), the PBMC are washed twice and used directly. Purified T cells are obtained by E rosette formation with sheep erythrocytes [cf. Blue, M. L., J. F. Daley, H. Levine, K. A. Craig and S. F. Schlossmann, 1986, Biosynthesis and surface expression of T8 by peripheral blood T4+ cells in vitro, J. Immunol. 137, 1202]. Monocytes are partially removed by adhesion to tissue culture plates or flasks. […] The cultures are treated with 1 μCi of ^3 H-thymidine for 6 h on the 7th day and collected on filter paper, and the incorporated radioactivity is determined by means of liquid scintillation counting.
The test substances are dissolved in 10 mM HCl in order to achieve a final concentration of 1 mM in each case. […] The inhibitory activity of the test substances is expressed as the IC50 in μM. […]

Compound	IC50 [µM]
O=C1CC2(CC3c4ccccc4C2c2ccccc23)C(=O)N1CCCN1CCN(c2ccc(F)cc2)CC1 (centres unmarked) [Example 1, 1'-{3-[4-(4-Fluorophenyl)-piperazin-1-yl]-propyl}-9,10-dihydro-9,10-ethano-anthracene-11-spiro-3'-pyrrolidine-2',5'-dione]	2
O=C1CC2(CC3c4ccccc4C2c2ccccc23)C(=O)N1CCCN1CCN(c2ccccc2)CC1 (centres unmarked) [Example 2]	5

From US5461054A, “Anthracene-spiro-pyrrolindines” (Bayer Aktiengesellschaft, priority 1993, dated 1995)
